Measured values published in patent US10301323B2, “Histone deacetylase inhibitors” (BIOMARIN PHARMACEUTICAL INC., priority 2011, dated 2019).
Where two headings read alike, the source gives them in different places.

How the values were obtained:
HCT116 cells = test: Cell proliferation assay; assay type: cell-based; conditions: Homo sapiens, HCT-116, 72 h, read-out: Hct-116 (anti-proliferation IC50)
Experimental: HCT116 cells (5000 cells/well) in 80 μL McCoy's 5 A medium containing 10% v/v FBS, 1% v/v penicillin/streptomycin and 1% v/v L-glutamine were incubated in 96-well plates with compounds at various concentrations for 72 h at 37° C. in a 5% CO2 atmosphere. The compound dilutions were made in 100% DMSO followed by parallel dilutions in media. The final concentration of DMSO in each well was 0.05%. After 72 h, 20 μL of Cell titer 96 aqueous one solution (Promega Corporation, Madison, Wis.) were added to the cells and the plate was incubated at 37° C. for another 4 h. The absorbance at 490 nm was then recorded on a 96-well plate reader (Spectramax M2, Molecular Devices, Sunnyvale, Calif.). Data analysis was performed in Microsoft Excel (Microsoft Corp, Redmond, Wash.).

C57BL/6J male mice = test: Long term memory for object recognition; assay type: in vivo; conditions: 3, 10, 30 mg/kg subcutaneous; object recognition memory task
Experimental: C57BL/6J male mice were handled 1-2 min for 5 days and were habituated to the experimental apparatus 5 min a day for 4 consecutive days in the absence of objects. […] 24-h later mice were tested for memory retention (5 min) using the object recognition memory task (ORM), in which a familiar object was replaced with a novel one. All training and testing trials were videotaped and analyzed by individuals blind to the treatment condition and the genotype of subjects. A mouse was scored as exploring an object when its head was oriented toward the object within a distance of 1 cm or when the nose was touching the object. The relative exploration time was recorded and expressed by a discrimination index [DI=(tnovel−tfamiliar)/(tnovel+tfamiliar)×100].

[1] = test system: GM 15850 (lymphoblastoid cells line) cells; test: In-cell deacetylase inhibition assay (DAC assay); assay type: cell-based; conditions: Homo sapiens, GM15850, GM 15850 cells, 4 h incubation
Experimental: Compound dilutions were made in 100% DMSO followed by parallel dilution in media with 2% DMSO. 10 μl of the compound dilutions were added to the cells to achieve the desired concentrations. The final concentration of DMSO in each well was 0.2%. The cells were incubated for 4 h at 37° C. with 5% CO2. After incubation, the cells were centrifuged down and the supernatant was removed. […] The reaction was stopped after 30 min incubation by addition of 50 μL developer (6 mg/mL trypsin in HDAC assay buffer). The reaction was allowed to develop for 30 min at room temperature and the fluorescence signal was detected using a fluorometer (Spectramax M2, Molecular Devices, Sunnyvale, Calif.) with excitation and emission wavelengths of 360 nm and 470 nm respectively. The data was fitted to a sigmoidal dose response equation with variable slope in GraphPad Prism 5.0 (GraphPad Software, La Jolla, Calif.) to determine IC50. Bottom and top of the curve were fixed to the average fluorescence response of control wells with no cells and cells but no compound respectively.

[2] = Compound stability in hepatocytes; conditions: human hepatocytes, 5 μM compound
Experimental: To assess the stability and metabolism of RGFP compounds in hepatocytes. This assay was designed to evaluate the metabolism of RGFP compounds, following their incubation with human, monkey, dog and rat hepatocytes by monitoring either parent drug disappearance or metabolite appearance using HPLC.
Procedure: • Turn on the water-bath heater to 37° C. • Take out the KHB buffer and make sure it is at room temp before use • Prepare 2.5 mM concentration of RGFP compound in DMSO stock • Add 10 μL of above DMSO stock to 2490 μL KHB buffer; final concentration of RGFP compound will be 10 μM • Pre-warm 45 ml InVitro HT Medium to 37° C. in a sterile 50 ml conical tube • Add 1.0 mL Torpedo Antibiotic Mix per 45 mL InVitro HT medium • Transfer 13 mL of warm HT medium with Antibiotic Mix into a 15 mL conical tube. • Carefully remove the hepatocyte vials from liquid nitrogen (liquid phase). • Immediately immerse the vial into a 37° C. water bath. Shake gently until the ice melts entirely. […] Loosen the cell pellet by gently swirling the centrifuge tube • Transfer 100 μL of above solution to a different tube and add 900 μL of KHB buffer to count the cells • Determine the total cell count and the number of viable cells using the Trypan Blue exclusion method • Once you obtain the cell count, multiply the number by 10 (attributing to the dilution factor) • Now add required volume of KHB buffer to the tube containing hepatocytes such that the final count will be 2 million cells/mL • Dispense 50 μL of 2 million cells/ml to a 96 well plate and then add 50 μl of DMSO stock to respective wells (such that, the concentration of RGFP compounds is 5 μM and number of cells are 100000 in each well) • Place the plates on a shaker in a 37° C. incubator with 5% CO2 • Separate plates for each time point are advisable (Time points: 0 h, 1 h, 2 h, and 6 h) • After each time point, add 100 μL of quenching solution. • Quenching solution is an acetonitrile solution containing RGFP531 (10 μM) internal standard, 0.1% formic acid and phenylglyoxol (400 μM). The formic acid and phenylglyoxal is used for the identification and quantification of OPD as mentioned above. • Pipette up and down a few times to ensure a complete stop of reaction • Transfer all the solution into a 1.5 ml tube, vortex thoroughly, and centrifuge at 14000 RPM at 4° C. for 5 minutes to precipitate cell debris
Transfer the 150 μL of supernatant to vials for analysis using HPLC

[3] = Brain penetration studies; conditions: Table 4; mice dosed s.c. at 5 mg/kg or 50 mg/kg, or i.v. at 5 mg/kg; Cmax(brain)/Cmax(plasma)
Experimental: Test compounds were prepared at either 0.5 mg/ml or 5 mg/ml in 30% hydroxypropyl-β-cyclodextrin, 100 mM sodium acetate pH 5.5, 5% DMSO. C57/BL6/J mice were dosed s.c. at 5 mg/kg or 50 mg/kg, or i.v. at 5 mg/kg. Animals were euthanized at pre-dose, 5, 15, 30 min, 1, 2 and 4 hours post-dose and plasma and brain obtained. Three animals per dose per time points were used. The levels of compound in the plasma and brain were determined by standard LC/MS/MS methods. Brain/plasma ratio (BPR) was calculated as the ratio of the Cmax(brain)/Cmax(plasma).

[4] = test system: frataxin (FXN) mRNA in primary lymphocytes from Friedreich's ataxia patient donors; test: Effect of HDAC inhibitors on frataxin (FXN) mRNA expression; assay type: cell-based, human; conditions: Table 4, concentration required for a 2-fold increase in FXN mRNA, 48 hours
Experimental: Blood is collected from Friedreich's ataxia patient donors into tubes containing the anti-coagulant EDTA. Primary lymphocytes are isolated using Lymphocyte Separation Medium (MP Biomedicals, Solon, Ohio) following the manufacturer's instructions and including a few modifications made by Repligen. After a final wash in Phosphate Buffered Saline (PBS), the cells are distributed into a 6-well cell culture plate in cell growth medium. The test HDAC inhibitor compound is added to cells in a dose escalating manner (usually concentrations range from 1 to 10 μM) and 0.1% DMSO is added to one well of cells as a no treatment control. Cells are incubated for 48 hours at 37° C. in a CO2 incubator; cell counts are taken using a Countess automated cell counter (Invitrogen, Carlsbad, Calif.). Equivalent numbers of cells for all treatment conditions are pelleted by centrifugation and resuspended in cell lysis buffer. Total RNA is isolated from approximately 1×10^6 primary lymphocytes using a RNeasy Mini Kit (Qiagen, Valencia, Calif.), following the manufacturer's instructions and including an optional on-column DNAse digestion step. […] The RNA yield and concentration is determined using a Nanodrop spectrophotometer (Thermo Fisher Scientific, Waltham, Mass.) and depending on the RNA concentration, one of two protocols is used to measure frataxin (FXN) transcript levels. […] In both methods each RNA sample is analyzed in triplicate (preferably) or duplicate (minimally) using a one-step qRT-PCR master mix that contains all the components necessary for cDNA synthesis and PCR amplification in a single, continuous reaction. […] The amount of FXN (or GAPDH) in the sample is determined as the relative quantity to the calibrator where the calibrator sample is assigned an arbitrary quantity of 1. The following equation is used: Relative quantity to the calibrator=2^−ΔCt where ΔCt=(Ct_gene)unknown−(Ct_gene)calibrator, gene is either FXN or GAPDH, calibrator is a DMSO control sample, and unknown is a HDACi treated sample. The relative quantity of FXN is normalized to cell number and RNA input. […]

SMILES | IC50 ([1]; Table 4, read-out: DAC IC50) [µM] | % left 6h Hum [2] | BPR [3] | also measured
Cn1cnc(/C=C/C(=O)Nc2ccccc2N)c1 [A12] | – | – | – | IC50 (HCT116 cells): > 20 µM
Nc1ccccc1NC(=O)/C=C/c1cnn(CCOc2cc(F)cc(Cl)c2)c1 [B5, (E)-N-(2-aminophenyl)-3-(1-(2-(3-chloro-5-fluorophenoxy)ethyl)-1H-pyrazol-4-yl)acrylamide] | – | – | – | IC50 (HCT116 cells): 10 to 20 µM
Nc1cc(F)ccc1NC(=O)/C=C/c1cnn(C/C=C/c2ccccc2)c1 [D2, (E)-N-(2-amino-4-fluorophenyl)-3-(1-cinnamyl-1H-pyrazol-4-yl)acrylamide] | – | – | – | dose dependence of the effect on long-term memory (C57BL/6J male mice): no effect of dose
Nc1ccccc1NC(=O)/C=C/c1csc(C/C=C/c2ccccc2)n1 [E2, (E)-N-(2-aminophenyl)-3-(2-cinnamylthiazol-4-yl)acrylamide] | – | – | – | IC50 ([1]; read-out: 850 DAC (in-cell deacetylase inhibition IC50)): 10 to 20 µM; IC50 (HCT116 cells): > 20 µM
Nc1ccccc1NC(=O)c1ccc(C=C2CCN(Cc3cccnc3)CC2)c(Cl)c1 [F7] | 5 to 10 | – | – | –
CN1C2CCC1CC(=Cc1ccc(C(=O)Nc3ccccc3N)cc1Cl)C2 [F8] | < 1 | – | – | –
Nc1ccccc1NC(=O)c1ccc(C=C2COC2)cc1F [F9] | < 1 | IA (IA<10%) | – | –
Nc1ccccc1NC(=O)c1ccc(C=C2CN(CC3CC3)C2)c(Cl)c1 [F10] | 5 to 10 | – | A (A is greater than 1) | –
Nc1ccccc1NC(=O)c1ccc(C=C2COC2)c(Cl)c1 [F11] | < 1 | – | A (A is greater than 1) | –
Nc1ccccc1NC(=O)c1ccc(C=C2CN(CC3CC3)C2)cc1 [F12] | < 1 | A (50%<A) | A (A is greater than 1) | Fxn >2X (uM) [4]: A (A if less than 5 μM)
Nc1ccccc1NC(=O)c1ccc(C=C2CCN(CC3CC3)CC2)cc1 [F13] | – | – | A (A is greater than 1) | –
CC(C)(C)CN1CCC(=Cc2ccc(C(=O)Nc3ccccc3N)cc2)CC1 [F14] | 1 to 5 | – | A (A is greater than 1) | Fxn >2X (uM) [4]: A (A if less than 5 μM)
CC(C)(O)CN1CCC(=Cc2ccc(C(=O)Nc3ccccc3N)cc2)CC1 [F15] | 1 to 5 | A (50%<A) | A (A is greater than 1) | Fxn >2X (uM) [4]: A (A if less than 5 μM)
CC(C)(O)CN1CC(=Cc2ccc(C(=O)Nc3ccccc3N)cc2)C1 [F19] | – | A (50%<A) | – | –
Nc1cc(F)ccc1NC(=O)c1ccc(C=C2CN(CC3CC3)C2)cc1 [F20] | – | A (50%<A) | – | –
Cc1ccc(C(=O)NCCCCCC(=O)Nc2ccc(F)cc2N)cc1 [RGFP 136, reference compound] | – | – | – | dose dependence of the effect on long-term memory (C57BL/6J male mice): Dose dependent effects
